# Molecular target: mGluR4 (UniProt Q14833)
# Test: mGluR4 potentiation assay (EC50 for potentiation at EC20 agonist; fluorometric plate reader, Ca2+ or thallium dye)
# Assay type: cell-based
# Conditions: potentiation of mGluR4; species of receptor not given
# Description: The disclosed compounds and compositions can be evaluated for their ability to act as a potentiator of metabotropic glutamate receptor activity, in particular mGluR4 activity, by any suitable known methodology known in the art. For example, Chinese Hamster Ovary (CHO) cells transacted with human mGluR4 or HEK cells co-transfected with rat mGluR4 and the G-protein regulated Inwardly Rectifying Potassium channel (GIRK) were plated in clear bottom assay plates for assay in a Hamamatsu FDSS Fluorometric Plate Reader. The cells were loaded with either a Ca2+-sensitive fluorescent dye or the thallium responsive dye and the plates were washed and placed into a suitable kinetic plate reader. For human mGluR4 assays, a fluorescence baseline was established for 3-5 seconds, the disclosed compounds were then added to the cells, and the response in cells was measured. Approximately two and a half minutes later, a concentration of mGluR4 orthosteric agonist (e.g. glutamate or L-AP4) eliciting approximately 20% (EC20) of the maximal agonist response was added to the cells, and the response was measured. Two minutes later, a concentration of mGluR4 agonist (e.g. glutamate or L-AP4) eliciting 80% (EC80) of the maximal agonist response was added to the cells, and the response was measured. For rat mGluR4/GIRK experiments, a baseline was established for approximately five seconds, disclosed compounds were added, and either an EC20 or EC80 concentration of agonist was added approximately two and one half minutes later. Potentiation of the agonist response of mGluR4 by the disclosed compounds was observed as an increase in response to the EC20 concentration of agonist in the presence of compound compared to the response to agonist in the absence of compound. Similarly, antagonism of the agonist response of mGluR4 by the disclosed compounds was observed as a decrease in response to the EC80 concentration of agonist in the presence of compound compared to the response to agonist in the absence of compound.
# The above described assay operated in two modes. In the first mode, a range of concentrations of the disclosed compounds are added to cells, followed by a single fixed concentration of agonist. If the compound acts as a potentiator, an EC50 so value for potentiation and a maximum extent of potentiation by the compound at this concentration of agonist is determined by non-linear curve fitting. If the compound acts as a noncompetitive antagonist, an IC50 value is determined by non-linear curve fitting. In the second mode, several fixed concentrations of the disclosed compounds are added to various wells on a plate, followed by a range in concentrations of agonist for each concentration of disclosed compound. The EC50 values for the agonist at each concentration of compound are determined by non-linear curve fitting. A decrease in the EC50 value of the agonist with increasing concentrations of the sample compound (a leftward shift of the agonist concentration-response curve) is an indication of the degree of mGluR4 potentiation at a given concentration of the sample compound. A decrease in the maximal response of the agonist with increasing concentrations of the sample compounds, with or without a rightward shift in agonist potency, is an indication of the degree of noncompetitive antagonism at mGluR4. The second mode also indicates whether the sample compounds also affect the maximum response to mGluR4 to agonists.
row,SMILES,EC50
1,"ClC1(c2noc3cc(Nc4n[nH]c5nccnc45)ccc23)CCC1 [Example 8, 3-(1-chlorocyclobutyl)-N-(1H-pyrazolo[3,4-b]pyrazin-3-yl)benzo[d]isoxazol-6-amine]",185 nM
2,"CC(C)(C)C(F)c1noc2cc(Nc3n[nH]c4cccnc34)ccc12 (stereo not shown) [Example 146, 3-(1-fluoro-2,2-dimethyl-propyl)-N-(1H-pyrazolo[4,3-b]pyridin-3-yl)-1,2-benzoxazol-6-amine]",2110 nM
3,"c1cnc2c(Nc3ccc4c(OC5CCOCC5)noc4c3)n[nH]c2c1 [Example 26, N-(1H-pyrazolo[4,3-b]pyridin-3-yl)-3-((tetrahydro-2H-pyran-4-yl)oxy)benzo[d]isoxazole-6-amine]",1200 nM
4,"ClC1(c2noc3cc(Nc4n[nH]c5cccnc45)ccc23)CCC1 [Example 6, 3-(1-chlorocyclobutyl)-N-(1H-pyrazolo[4,3-b]pyridin-3-yl)benzo[d]isoxazol-6-amine]",> 10000 nM
5,"CCc1noc2cc(Nc3n[nH]c4ncccc34)ccc12 [Example 15, 3-ethyl-N-(1H-pyrazolo[3,4-b]pyridin-3-yl)benzo[d]isoxazol-6-amine]",2100 nM
6,"CC(C)(C)Cc1noc2cc(Nc3n[nH]c4ncc(F)cc34)cc(F)c12 [Example 150, 3-(2,2-dimethylpropyl)-4-fluoro-N-(5-fluoro-1H-pyrazolo[3,4-b]pyridin-3-yl)-1,2-benzoxazol-6-amine]",> 10000 nM
7,"Cc1noc2c(F)cc(Nc3n[nH]c4ncccc34)cc12 [Example 107, 7-fluoro-3-methyl-N-(1H-pyrazolo[3,4-b]pyridin-3-yl)-1,2-benzoxazol-5-amine]",53.1 nM
8,"CC(C)c1noc2cc(Nc3n[nH]c4ncccc34)ccc12 [Example 154, 3-isopropyl-N-(1H-pyrazolo[3,4-b]pyridin-3-yl)-1,2-benzoxazol-6-amine]",586 nM
9,"CCC(CC)c1noc2cc(Nc3n[nH]c4nccnc34)ccc12 [Example 83, 3-(1-ethylpropyl)-N-(1H-pyrazolo[3,4-b]pyrazin-3-yl)-1,2-benzoxazol-6-amine]",97.1 nM
10,"CN(Cc1ccncc1)C(=O)Cc1noc2cc(Nc3n[nH]c4cccnc34)ccc12 [Example 160, N-methyl-2-[6-(1H-pyrazolo[4,3-b]pyridin-3-ylamino)-1,2-benzoxazol-3-yl]-N-(4-pyridylmethyl)acetamide]",3430 nM
11,"CC1CN(c2noc3cc(Nc4n[nH]c5cccnc45)ccc23)CC(C)O1 (stereo not shown) [Example 28, 3-(2,6-dimethylmorpholino)-N-(1H-pyrazolo[4,3-b]pyridin-3-yl)benzo[d]isoxazol-6-amine]",1860 nM
12,"CCc1noc2ccc(Nc3n[nH]c4cccnc34)cc12 [Example 25, 3-ethyl-N-(1H-pyrazolo[4,3-b]pyridin-3-yl)benzo[d]isoxazol-5-amine]",> 10000 nM
13,"CC(C)(C)Cc1noc2cc(Nc3n[nH]c4nccnc34)ccc12 [Example 14, 3-neopentyl-N-(1H-pyrazolo[3,4-b]pyrazin-3-yl)benzo[d]isoxazol-6-amine]",617 nM
14,"CC(C)(C)Cc1noc2cc(Nc3n[nH]c4cc(F)cnc34)cc(F)c12 [Example 151, 3-(2,2-dimethylpropyl)-4-fluoro-N-(6-fluoro-1H-pyrazolo[4,3-b]pyridin-3-yl)-1,2-benzoxazol-6-amine]",> 10000 nM
15,"CCC(CC)c1noc2cc(Nc3n[nH]c4ncccc34)ccc12 [Example 84, 3-(1-ethylpropyl)-N-(1H-pyrazolo[3,4-b]pyridin-3-yl)-1,2-benzoxazol-6-amine]",522 nM
16,"CCCC(C)c1noc2cc(Nc3n[nH]c4ncc(F)cc34)ccc12 (stereo not shown) [Example 96, N-(5-fluoro-1H-pyrazolo[3,4-b]pyridin-3-yl)-3-(1-methylbutyl)-1,2-benzoxazol-6-amine]",418 nM
17,"Cc1noc2ccc(Nc3n[nH]c4cccnc34)cc12 [Example 22, 3-methyl-N-(1H-pyrazolo[4,3-b]pyridin-3-yl)benzo[d]isoxazol-5-amine]",76 nM

row,SMILES,EC50
1,"CCc1noc2cc(Nc3n[nH]c4cccnc34)ccc12 [Example 16, 3-ethyl-N-(1H-pyrazolo[4,3-b]pyridin-3-yl)benzo[d]isoxazol-6-amine]",1300 nM
2,"CCCCC(C)(F)c1noc2cc(Nc3n[nH]c4cccnc34)ccc12 (stereo not shown) [Example 134, 3-(1-fluoro-1-methyl-pentyl)-N-(1H-pyrazolo[4,3-b]pyridin-3-yl)-1,2-benzoxazol-6-amine]",2660 nM
3,"CC(C)(C)Cc1noc2cc(Nc3n[nH]c4nccnc34)cc(F)c12 [Example 149, 3-(2,2-dimethylpropyl)-4-fluoro-N-(1H-pyrazolo[3,4-b]pyrazin-3-yl)-1,2-benzoxazol-6-amine]",> 10000 nM
4,"CC(c1noc2cc(Nc3n[nH]c4cccnc34)ccc12)C(F)F (stereo not shown) [Example 178, 3-(2,2-difluoro-1-methyl-ethyl)-N-(1H-pyrazolo[4,3-b]pyridin-3-yl)-1,2-benzoxazol-6-amine]",1710 nM
5,"CC(C)(C)Cc1noc2c(F)c(Nc3n[nH]c4nccnc34)ccc12 [Example 164, 3-(2,2-dimethylpropyl)-7-fluoro-N-(1H-pyrazolo[3,4-b]pyrazin-3-yl)-1,2-benzoxazol-6-amine]",> 30000 nM
6,"CC(C)(C)Cc1noc2cc(Nc3n[nH]c4ccccc34)ccc12 [Example 17, N-(1H-indazol-3-yl)-3-neopentylbenzo[d]isoxazol-6-amine]",> 10000 nM
7,"O=C(NC1CCC1)c1noc2cc(Nc3n[nH]c4cccnc34)ccc12 [Example 53, N-cyclobutyl-6-(1H-pyrazolo[4,3-b]pyridin-3-ylamino)-1,2-benzoxazole-3-carboxamide]",672 nM
8,"CCCCC(F)c1noc2cc(Nc3n[nH]c4cccnc34)ccc12 (stereo not shown) [Example 147, 3-(1-fluoropentyl)-N-(1H-pyrazolo[4,3-b]pyridin-3-yl)-1H-benzoxazol-6-amine]",1490 nM
9,"O=C(Cc1noc2cc(Nc3n[nH]c4cccnc34)ccc12)N1CC(F)(F)C1 [Example 144, 1-(3,3-difluoroazetidin-1-yl)-2-[6-(1H-pyrazolo[4,3-b]pyridin-3-ylamino)-1,2-benzoxazol-3-yl]ethanone]",2580 nM
10,"C[C@@H](NCc1noc2cc(Nc3n[nH]c4cccnc34)ccc12)C(C)(C)C [Example 79, N-(1H-pyrazolo[4,3-b]pyridin-3-yl)-3-[[[(1R)-1,2,2-trimethylpropyl]amino]methyl]-1,2-benzoxazol-6-amine]",622 nM
11,"c1cnc2c(Nc3ccc4c(C5CCC5)noc4c3)n[nH]c2c1 [Example 3, 3-cyclobutyl-N-(1H-pyrazolo[4,3-b]pyridin-3-yl)benzo[d]isoxazol-6-amine]",897 nM
12,"CC(c1ccccn1)N(C)C(=O)Cc1noc2cc(Nc3n[nH]c4cccnc34)ccc12 (stereo not shown) [Example 165, N-methyl-2-[6-(1H-pyrazolo[4,3-b]pyridin-3-ylamino)-1,2-benzoxazol-3-yl]-N-[1-(2-pyridyl)ethyl]acetamide]",2300 nM
13,"O=C(Cc1noc2cc(Nc3n[nH]c4cccnc34)ccc12)NC1CC(F)(F)C1 [Example 140, N-(3,3-difluorocyclobutyl)-2-[6-(1H-pyrazolo[4,3-b]pyridin-3-ylamino)-1,2-benzoxazol-3-yl]acetamide]",> 10000 nM
14,"CC(C)(C)Cc1noc2cc(Nc3n[nH]c4ncccc34)ccc12 [Example 20, 3-neopentyl-N-(1H-pyrazolo[3,4-b]pyridin-3-yl)benzo[d]isoxazol-6-amine]",3100 nM
15,"O=C(Cc1noc2cc(Nc3n[nH]c4nccnc34)ccc12)NC1CC(F)(F)C1 [Example 141, N-(3,3-difluorocyclobutyl)-2-[6-(1H-pyrazolo[3,4-b]pyrazin-3-ylamino)-1,2-benzoxazol-3-yl]acetamide]",277 nM
16,"c1cnc2c(Nc3ccc4c(CN5CCOCC5)noc4c3)n[nH]c2c1 [Example 133, 3-(morpholinomethyl)-N-(1H-pyrazolo[4,3-b]pyridin-3-yl)-1,2-benzoxazol-6-amine; 2,2,2-trifluoroacetic acid]",5770 nM
17,"Cc1noc2c(F)cc(Nc3n[nH]c4nccnc34)cc12 [Example 106, 7-fluoro-3-methyl-N-(1H-pyrazolo[3,4-b]pyrazin-3-yl)-1,2-benzoxazol-5-amine]",23.1 nM

# Reference: patent US9980945B2, “Benzoisoxazole-substituted compounds as MGLUR4 allosteric potentiators, compositions, and methods of treating neurological dysfunction” (Vanderbilt University, priority 2015, dated 2018)
